{
  "source": "patent US5981558A",
  "about": "“DC107 derivatives” (Kyowa Hakko Kogyo Co., Ltd., priority 1996, dated 1999)",
  "key": {"[1]": {"system": "Sarcoma 180 mouse solid tumor", "test": "Antitumor activity against Sarcoma 180 mouse solid tumor", "type": "in vivo, mouse (ddY)", "conditions": "Sarcoma-180, iv, 168 h; for response vs control in vivo at 16 mg/kg: 16 mg/kg i.v. once", "method": "To a ddY mouse were intraperitoneally transplanted 5×10^6 sarcoma 180 cells. On the seventh day from the transplant, the cells were collected from the ascites, washed once with sterilized physiological saline, and then diluted with sterilized physiological saline to prepare a cell suspension having a concentration of 5×10^7 cells/mL. This suspension was transplanted in an amount of 0.01 mL to a subcutaneous part of the right axilla of each of male ddY mice each weighing 20±1 g.\nA test compound was dissolved in physiological saline containing polyoxyethylene sorbitan monolaurate. At 24 hours after the tumor transplant, 0.2 mL of the solution was intravenously administered to the tail of each of a group of five mice."}, "HeLa S3 cells": {"system": "HeLa S3 cells", "test": "HeLa S3 Cell Growth Inhibition Test", "type": "cell-based", "conditions": "Homo sapiens", "outline": "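HeLa S3 cells seeded overnight in MEM with 10% FBS, then exposed to compound for 72 h at 37 °C. Viable cells stained with Neutral Red, dye extracted, absorbance read at 550 nm; IC50 derived against untreated cells.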"}, "[2]": {"conditions": "24 hours after transplant, tumor volume on day 7, read-out: T/C (tumor volume ratio treated/control)"}, "[3]": {"conditions": "HeLa S3, 72 h, HeLa S3, 72 hours incubation, Neutral Red, read-out: IC50, HeLa S3 cell growth inhibition"}, "[4]": {"conditions": "8.0 mg/kg i.v. once, 24 hours after transplant, tumor volume on day 7, read-out: T/C (tumor volume ratio treated/control)"}, "[5]": {"conditions": "read-out: T/C (tumor volume ratio treated/control)"}, "[6]": {"conditions": "HeLa S3, 72 h, read-out: IC50, HeLa S3 cell growth inhibition, HeLa S3, 72 hours incubation, Neutral Red"}},
  "note": "pIC50: −log10 of the molar value. Where two headings read alike, the source gives them in different places.",
  "data": [
    {"smiles": "COC(=O)[C@H](CCC(=O)OCSC(=O)C(C)(O)C12CCC(C)=CC(O)C(=O)C=CC=Cc3csc(n3)C(C)N(C(=O)C1)[S+]2[O-])NC(=O)[C@H]1O[C@@H]2OC(C)(C)O[C@@H]2[C@H]2OC(C)(C)O[C@H]21", "note": "(stereo partly shown) [Compound 25]", "values": [
      {"measurement": "response vs control in vivo at 16 mg/kg", "setting": "[1]; [2]", "value": 30, "unit": "%"},
      {"measurement": "pIC50", "setting": "HeLa S3 cells; [3]", "value": 6.10}
    ]},
    {"smiles": "CC1=CC(OC2CCCCO2)C(=O)C=CC=Cc2csc(n2)C(C)N2C(=O)CC(C(C)(O)C(=O)SCOC(=O)C(C)(C)NC(=O)OCc3ccccc3)(CC1)[S+]2[O-]", "note": "(single isomer, unassigned) [Compound 4]", "values": [
      {"measurement": "response vs control in vivo at 8 mg/kg", "setting": "[1]; [4]", "value": 30, "unit": "%"},
      {"measurement": "pIC50", "setting": "HeLa S3 cells; [3]", "value": 7.41}
    ]},
    {"smiles": "CC(=O)NC(Cc1ccc(OC(C)=O)cc1)C(=O)OCSC(=O)C(C)(O)C12CCC(C)=CC(O)C(=O)C=CC=Cc3csc(n3)C(C)N(C(=O)C1)[S+]2[O-]", "note": "(stereo not shown) [Compound 29]", "values": [
      {"measurement": "response vs control in vivo at 4 mg/kg", "setting": "[1]; 4.0 mg/kg i.v. once, 24 hours after transplant, tumor volume on day 7, read-out: T/C (tumor volume ratio treated/control)", "value": 47, "unit": "%"},
      {"measurement": "pIC50", "setting": "HeLa S3 cells; [3]", "value": 6.40}
    ]},
    {"smiles": "CC(=O)NCC(=O)OCc1oc(=O)oc1CSC(=O)C(C)(O)C12CC/C(C)=C/C(OC3CCCCO3)C(=O)/C=C/C=C\\c3csc(n3)C(C)N(C(=O)C1)[S+]2[O-]", "note": "(stereo not shown) [Compound 98]", "values": [
      {"measurement": "response vs control in vivo at 16 mg/kg", "setting": "[1]; [2]", "value": 40, "unit": "%"},
      {"measurement": "pIC50", "setting": "HeLa S3 cells; [3]", "value": 7.15}
    ]},
    {"smiles": "COC(=O)[C@H](CCC(=O)OCSC(=O)C(C)(O)C12CC/C(C)=C/C(OC3CCCCO3)C(=O)/C=C/C=C\\c3csc(n3)C(C)N(C(=O)C1)[S+]2[O-])NC(=O)[C@@]12O[C@H]3COC(C)(C)O[C@H]3[C@@H]1OC(C)(C)O2", "note": "(single isomer, unassigned) [Compound 50]", "values": [
      {"measurement": "response vs control in vivo at 8 mg/kg", "setting": "[1]; [5]", "value": 41, "unit": "%"},
      {"measurement": "pIC50", "setting": "HeLa S3 cells; [6]", "value": 7.80}
    ]},
    {"smiles": "C/C1=C\\C(OC2CCCCO2)C(=O)/C=C/C=C\\c2csc(n2)C(C)N2C(=O)CC(C(C)(O)C(=O)SCOC(=O)CCNC(=O)[C@H]3O[C@@H]4OC(C)(C)O[C@@H]4[C@H]4OC(C)(C)O[C@H]43)(CC1)[S+]2[O-]", "note": "(stereo partly shown) [Compound 45]", "values": [
      {"measurement": "response vs control in vivo at 8 mg/kg", "setting": "[1]; [5]", "value": 45, "unit": "%"},
      {"measurement": "pIC50", "setting": "HeLa S3 cells; [6]", "value": 7.36}
    ]},
    {"smiles": "C/C1=C\\C(O)C(=O)/C=C/C=C\\c2csc(n2)C(C)N2C(=O)CC(C(C)(O)C(=O)SCc3oc(=O)oc3COC3C[C@H](O[Si](C)(C)C(C)(C)C)[C@@H](O[Si](C)(C)C(C)(C)C)[C@H](C)O3)(CC1)[S+]2[O-]", "note": "(stereo partly shown) [Compound 79]", "values": [
      {"measurement": "response vs control in vivo at 8 mg/kg", "setting": "[1]; [4]", "value": 45, "unit": "%"},
      {"measurement": "pIC50", "setting": "HeLa S3 cells; HeLa S3, 72 hours incubation, Neutral Red, read-out: IC50, HeLa S3 cell growth inhibition", "value": 6.10}
    ]},
    {"smiles": "COCOCc1oc(=O)oc1CSC(=O)C(C)(O)C12CC/C(C)=C/C(OC3CCCCO3)C(=O)/C=C/C=C\\c3csc(n3)C(C)N(C(=O)C1)[S+]2[O-]", "note": "(stereo not shown) [Compound 78]", "values": [
      {"measurement": "response vs control in vivo at 8 mg/kg", "setting": "[1]; [4]", "value": 50, "unit": "%"},
      {"measurement": "pIC50", "setting": "HeLa S3 cells; [3]", "value": 8.66}
    ]},
    {"smiles": "CC1=CC(O)C(=O)C=CC=Cc2csc(n2)C(C)N2C(=O)CC(C(C)(O)C(=O)SCOC(=O)C3CCC(C(=O)O)CC3)(CC1)[S+]2[O-]", "note": "(stereo not shown) [Compound 11]", "values": [
      {"measurement": "response vs control in vivo at 4 mg/kg", "setting": "[1]; [5]", "value": 48, "unit": "%"},
      {"measurement": "pIC50", "setting": "HeLa S3 cells; HeLa S3, 72 h, read-out: IC50, HeLa S3 cell growth inhibition, footnote *: Value after 72 hours of drug treatment", "value": 7.00}
    ]},
    {"smiles": "COC(=O)[C@H](CCC(=O)OCSC(=O)C(C)(O)C12CCC(C)=CC(O)C(=O)C=CC=Cc3csc(n3)C(C)N(C(=O)C1)[S+]2[O-])NC(=O)C1(C)COC(C)(C)OC1", "note": "(stereo partly shown) [Compound 27]", "values": [
      {"measurement": "response vs control in vivo at 2 mg/kg", "setting": "[1]; [5]", "value": 46, "unit": "%"}
    ]},
    {"smiles": "C/C1=C\\C(O)C(=O)/C=C/C=C\\c2csc(n2)C(C)N2C(=O)CC(C(C)(O)C(=O)SCOC(=O)OCCN3CCCC3=O)(CC1)[S+]2[O-]", "note": "(stereo not shown) [Compound 146]", "values": [
      {"measurement": "response vs control in vivo at 4 mg/kg", "setting": "[1]; [5]", "value": 38, "unit": "%"}
    ]},
    {"smiles": "CC1=C(CSC(=O)C(C)(O)C23CC/C(C)=C/C(OC4CCCCO4)C(=O)/C=C/C=C\\c4csc(n4)C(C)N(C(=O)C2)[S+]3[O-])C(=O)OC(C)(C)O1", "note": "(stereo not shown) [Compound 123]", "values": [
      {"measurement": "response vs control in vivo at 16 mg/kg", "setting": "[1]; [2]", "value": 14, "unit": "%"},
      {"measurement": "pIC50", "setting": "HeLa S3 cells; [3]", "value": 6.22}
    ]},
    {"smiles": "CC1=CC(OC2CCCCO2)C(=O)C=CC=Cc2csc(n2)C(C)N2C(=O)CC(C(C)(O)C(=O)SCOC(=O)C3CCC(C(=O)O)CC3)(CC1)[S+]2[O-]", "note": "(stereo not shown) [Compound 12]", "values": [
      {"measurement": "response vs control in vivo at 8 mg/kg", "setting": "[1]; [4]", "value": 47, "unit": "%"},
      {"measurement": "pIC50", "setting": "HeLa S3 cells; [3]", "value": 6.06}
    ]},
    {"smiles": "CC1=CC(O)C(=O)C=CC=Cc2csc(n2)C(C)N2C(=O)CC(C(C)(O)C(=O)SCOC(=O)CO)(CC1)[S+]2[O-]", "note": "(stereo not shown) [Compound 14]", "values": [
      {"measurement": "response vs control in vivo at 2 mg/kg", "setting": "[1]; [5]", "value": 44, "unit": "%"},
      {"measurement": "pIC50", "setting": "HeLa S3 cells; [6]", "value": 6.42}
    ]},
    {"smiles": "CC1=CC(O)C(=O)C=CC=Cc2csc(n2)C(C)N2C(=O)CC(C(C)(O)C(=O)SCOC(=O)C(C)(C)NC(=O)OCc3ccccc3)(CC1)[S+]2[O-]", "note": "(stereo not shown) [Compound 3]", "values": [
      {"measurement": "response vs control in vivo at 16 mg/kg", "setting": "[1]; [2]", "value": 21, "unit": "%"},
      {"measurement": "pIC50", "setting": "HeLa S3 cells; [3]", "value": 6.89}
    ]},
    {"smiles": "C/C1=C\\C(O)C(=O)/C=C/C=C\\c2csc(n2)C(C)N2C(=O)CC(C(C)(O)C(=O)SCOC(=O)CCCNC(=O)[C@@]34O[C@@H](CO)[C@@H](O)[C@@H]3OC(C)(C)O4)(CC1)[S+]2[O-]", "note": "(stereo partly shown) [Compound 141]", "values": [
      {"measurement": "response vs control in vivo at 4 mg/kg", "setting": "[1]; [5]", "value": 31, "unit": "%"}
    ]},
    {"smiles": "CC1=CC(OC2CCCCO2)C(=O)C=CC=Cc2csc(n2)C(C)N2C(=O)CC(C(C)(O)C(=O)SCOC(=O)CO)(CC1)[S+]2[O-]", "note": "(stereo not shown) [Compound 15]", "values": [
      {"measurement": "response vs control in vivo at 1 mg/kg", "setting": "[1]; [5]", "value": 45, "unit": "%"},
      {"measurement": "pIC50", "setting": "HeLa S3 cells; [6]", "value": 7.85}
    ]}
  ]
}
